We go through six compounds from patent US20040023312A1, “Method for diagnosing huntingtons disease and means of treating it” (priority 2002, published 2004).

Molecules are shown by their SMILES. Where two headings read alike, the source gives them in different places.

For one assay, the target named is A2A receptor (Rattus norvegicus, UniProt P30543). The following applies: for cAMP formation with NECA + antagonist: 100 nM NECA, ST14A cells.
In a further assay the test system is G-proteins. In words: cAMP response induced by GTP-gammaS, a direct stimulator of G-proteins. Type of assay: cell-based, rat. The following applies: 10 μM GTP-gammaS; parental clone. The source says:
This concept is set down in the next page.

A further assay relates to adenyl cyclase. In words: cAMP levels stimulated by forskolin in ST14A parental cells and huntingtin clones. Type of assay: cell-based, rat.
For assay [1] the following is noted: in vivo; cited from earlier work.
The conditions of assay [2]: focal ischaemia model; cited from earlier work.
A further assay deals with N548wt cells. In words: Serum-deprivation induced cell death (mitochondrial function). The following applies: antagonist 100 nM, 24 h serum-free medium.

Chain of A2A receptor (P30543 whole entry): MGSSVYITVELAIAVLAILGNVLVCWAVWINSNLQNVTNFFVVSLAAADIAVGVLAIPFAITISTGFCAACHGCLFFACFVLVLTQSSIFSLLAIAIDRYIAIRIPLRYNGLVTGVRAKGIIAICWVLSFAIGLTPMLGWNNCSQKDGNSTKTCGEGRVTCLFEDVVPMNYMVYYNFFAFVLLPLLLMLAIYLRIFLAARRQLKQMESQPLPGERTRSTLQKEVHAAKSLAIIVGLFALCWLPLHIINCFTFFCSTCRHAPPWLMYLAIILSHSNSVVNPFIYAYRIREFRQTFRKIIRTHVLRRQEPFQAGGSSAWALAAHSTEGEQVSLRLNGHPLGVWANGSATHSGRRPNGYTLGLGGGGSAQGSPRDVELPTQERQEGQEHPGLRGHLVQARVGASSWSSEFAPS
Source text for N548wt cells: Cell death has been induced by shifting cultures to serum-free medium in the absence (black columns) or presence of the indicated A2A receptor antagonists. Data are the mean±S.E. of 6 experiments run in triplicate and are expressed as % of total cell death. *p<0.05 vs. control, Scheffe's test.
To assess the functional importance of the aberrant A2A receptor phenotype and its possible correlation with susceptibility to cell death, we have performed experiments where the influence of A2A receptor antagonists on the survival rate of ST14A cells have been specifically determined.

With `Cn1c(=O)c2c(ncn2C)n(C)c1=O` [Caffeine, caffeine], the “cAMP formation with NECA + antagonist” value turned out to be 30 ± 3 pmole/10^5 cells at A2A receptor (antagonist 10 μM), 27 ± 3 pmole/10^5 cells at A2A receptor (antagonist 100 μM) and 24 ± 3 pmole/10^5 cells on A2A receptor (antagonist 1 mM). For the same compound, the “antagonism of the increases in cAMP induced by NECA” value on A2A receptor (NECA 100 nM, parental clone and engineered clones) is on record as “completely antagonizing”.
On to `Nc1nc2c(ncn2[C@@H]2O[C@H](COP(=O)(O)OP(=O)(O)OP(O)(O)=S)[C@@H](O)[C@H]2O)c(=O)[nH]1` [GTP-gammaS], for which, in the assay with G-proteins, the “cAMP levels in the presence of GTP-gammaS” value is listed as 65±2 pmoles/10^5 cells.
`C=C[C@@]1(C)CC(=O)[C@]2(O)[C@@]3(C)[C@@H](O)CCC(C)(C)[C@@H]3[C@H](O)[C@H](OC(C)=O)[C@@]2(C)O1` [Forskolin]: the “cyclic AMP levels stimulated by forskolin” value stood at 78 ± 7 pmoles/10^5 cells with adenyl cyclase (Forskolin 1 μM + Ro201724 0.5 mM, FL mu cells); 60 ± 6 pmoles/10^5 cells in the assay on adenyl cyclase (Forskolin 1 μM + Ro201724 0.5 mM, FL wt cells); 63 ± 6 pmoles/10^5 cells in the assay on adenyl cyclase (Forskolin 1 μM + Ro201724 0.5 mM, N548 wt cells); 58 ± 4 pmoles/10^5 cells in the assay on adenyl cyclase (Forskolin 1 μM + Ro201724 0.5 mM, ST14A cells); 55 ± 5 pmoles/10^5 cells with adenyl cyclase (Forskolin 1 μM, FL mu cells); 54 ± 6 pmoles/10^5 cells in the assay with adenyl cyclase (Forskolin 1 μM, FL wt cells). For the same compound, the “cyclic AMP levels stimulated by forskolin” value in the assay on adenyl cyclase (Forskolin 1 μM, N548 wt cells) came to 47 ± 3 pmoles/10^5 cells; in the assay with adenyl cyclase (Forskolin 1 μM, ST14A cells), 45 ± 5 pmoles/10^5 cells.
In the case of `CCCCC#Cc1nc(N)c2ncn([C@@H]3O[C@H](C(=O)NCC)[C@@H](O)[C@H]3O)c2n1` [2-hexinyl-NECA], in assay [1], the “convulsions induced by pentyl-tetrazole” value is on record as “markedly reduces”.
As for `Nc1nc2c(cnn2CCc2ccccc2)c2nc(-c3ccco3)nn12` [SCH 58261, 5-amino-7-(2-phenylethyl)-2-(2-furyl)pyrazolo[4,3-e]-1,2,4-triazolo [1,5-c]pyrimidine], the “cortical damage associated with occlusion of the middle cerebral artery” value in assay [2] is on record as “significantly reducing”. Besides, the “effect on extent of serum-deprivation induced cell death” value with N548wt cells was “did not significantly affect”.
On to `Nc1nc(NCCc2ccc(O)cc2)nc2nc(-c3ccco3)nn12` [ZM 241385, 4-[2-[[7-amino-2-(2-furyl)[1,2,4]triazolo[2,3-a][1,3,5]triazin-5-yl]amino]ethyl]phenol], for which the “effect on extent of serum-deprivation induced cell death” value with N548wt cells is given as “did not significantly affect”.
